In patent US9206219B2, “17-hydroxy-17-pentafluorethyl-estra-4,9(10)-dien-11-aryl derivatives, methods for the production thereof and the use thereof for treating diseases” (Bayer Intellectual Property GmbH, priority 2009, dated 2015) one finds IC50 data, which are given here for 13 compounds.

For experiment [1], the target named is T1, human progesterone receptor A (Homo sapiens, UniProt P06401).
T1 construct: expressed in transfected cells; host or cells: SK-N-MC human neuroblastoma cells, stably transfected with pRChPR-A-neo and pMMTV-LUC
T1 sequence (P06401 1-769 isoform P06401-2): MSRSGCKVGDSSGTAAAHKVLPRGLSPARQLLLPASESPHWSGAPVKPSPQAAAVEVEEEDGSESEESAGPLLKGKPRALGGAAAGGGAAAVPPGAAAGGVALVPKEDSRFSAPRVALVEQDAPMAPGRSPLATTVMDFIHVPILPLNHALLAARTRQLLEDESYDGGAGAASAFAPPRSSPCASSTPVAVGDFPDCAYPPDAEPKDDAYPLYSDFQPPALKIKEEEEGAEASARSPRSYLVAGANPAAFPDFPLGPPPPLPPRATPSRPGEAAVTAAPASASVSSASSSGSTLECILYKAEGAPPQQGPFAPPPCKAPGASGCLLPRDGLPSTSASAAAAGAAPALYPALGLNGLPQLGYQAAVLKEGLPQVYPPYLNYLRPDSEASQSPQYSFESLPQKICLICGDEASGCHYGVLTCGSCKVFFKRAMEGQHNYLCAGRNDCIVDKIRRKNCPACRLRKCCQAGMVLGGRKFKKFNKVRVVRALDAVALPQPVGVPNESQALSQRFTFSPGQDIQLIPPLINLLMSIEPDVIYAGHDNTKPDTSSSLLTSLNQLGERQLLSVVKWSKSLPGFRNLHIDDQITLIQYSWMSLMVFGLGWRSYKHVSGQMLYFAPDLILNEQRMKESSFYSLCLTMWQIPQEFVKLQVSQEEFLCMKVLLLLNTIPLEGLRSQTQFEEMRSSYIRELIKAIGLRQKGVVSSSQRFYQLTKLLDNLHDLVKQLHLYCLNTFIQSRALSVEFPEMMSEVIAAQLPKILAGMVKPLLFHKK
The experiment is described as follows: Progesterone receptor-antagonistic action in stably transfected SK-N-MC cells, MMTV-LUC reporter (PR-A). The format is cell-based. As to conditions: antagonistic potency vs 0.1 nmol/l promegestone, 24 hours. As to the method: (§1) Progesterone Receptor-Antagonistic Action in Stable Transfectants of Human Neuroblastoma Cells (SK-N-MC Cells) with the Human Progesterone A or Progesterone B Receptor and an MN-LUC Reporter Construct
(§2) SK-N-MC cells (human neuroblastoma cells) which have been stably transfected with plasmids expressing the human progesterone receptor B (pRChPR-B-neo) or the human progesterone receptor A (pRChPR-A-neo) and a reporter construct (pMMTV-LUC) were incubated for 24 hours either in the absence (negative control) or in the presence of ascending amounts of the particular test compound (0.01 nmol/l, 0.1 nmol/l, 1 nmol/l, 10 nmol/l, 100 nmol/l and […]), in order to determine the agonistic efficacy. As a positive control of the reporter gene induction, the cells were treated with the synthetic gestagen promegestone (0.01 nmol/l, 0.1 nmol/l, 1 nmol/l, 10 nmol/l, 100 nmol/l and […]). To determine the antagonistic activity, the cells were treated with 0.1 nmol/l promegestone and additionally with ascending amounts of the particular test compound (0.01 nmol/l, 0.1 nmol/l, 1 nmol/l, 10 nmol/l, 100 nmol/l and […]). The activity of the reporter gene LUC (LUC=luciferase) was determined in the cell lysates and measured as RLU (relative light units). All measurements are reported as % efficacy and as EC50 and IC50 concentrations.

The target of experiment [2] is T2, human progesterone receptor B (Homo sapiens, UniProt P06401).
T2 construct: expressed in transfected cells; host or cells: SK-N-MC human neuroblastoma cells, stably transfected with pRChPR-B-neo and pMMTV-LUC
T2 sequence (P06401 1-933): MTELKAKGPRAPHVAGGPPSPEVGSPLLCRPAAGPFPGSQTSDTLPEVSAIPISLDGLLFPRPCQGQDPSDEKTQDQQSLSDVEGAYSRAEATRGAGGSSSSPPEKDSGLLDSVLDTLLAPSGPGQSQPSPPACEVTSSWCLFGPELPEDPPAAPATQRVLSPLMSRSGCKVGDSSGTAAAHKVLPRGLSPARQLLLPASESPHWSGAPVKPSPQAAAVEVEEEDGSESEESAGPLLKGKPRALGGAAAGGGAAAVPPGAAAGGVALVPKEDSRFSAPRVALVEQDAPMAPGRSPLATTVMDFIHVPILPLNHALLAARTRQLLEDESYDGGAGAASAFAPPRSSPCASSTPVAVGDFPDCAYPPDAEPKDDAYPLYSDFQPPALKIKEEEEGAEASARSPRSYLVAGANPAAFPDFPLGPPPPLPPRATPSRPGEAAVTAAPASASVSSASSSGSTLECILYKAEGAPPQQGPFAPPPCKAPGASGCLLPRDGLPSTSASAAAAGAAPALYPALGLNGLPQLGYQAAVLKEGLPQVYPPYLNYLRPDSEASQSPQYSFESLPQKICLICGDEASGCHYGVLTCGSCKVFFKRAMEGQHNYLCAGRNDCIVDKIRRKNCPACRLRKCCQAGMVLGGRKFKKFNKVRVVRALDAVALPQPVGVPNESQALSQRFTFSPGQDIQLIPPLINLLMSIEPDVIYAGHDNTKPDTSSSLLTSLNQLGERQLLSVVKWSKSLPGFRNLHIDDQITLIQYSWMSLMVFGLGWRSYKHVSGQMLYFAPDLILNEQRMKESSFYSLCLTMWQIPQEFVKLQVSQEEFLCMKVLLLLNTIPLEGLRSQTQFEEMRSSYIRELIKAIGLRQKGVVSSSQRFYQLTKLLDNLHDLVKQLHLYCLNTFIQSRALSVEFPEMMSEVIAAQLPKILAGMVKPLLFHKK
Briefly: Progesterone receptor-antagonistic action in stably transfected SK-N-MC cells, MMTV-LUC reporter (PR-B). The format is cell-based. As to conditions: antagonistic potency vs 0.1 nmol/l promegestone, 24 hours. As to the method: as §1, §2

Regarding `C=CCNC(=O)NCc1ccc([C@H]2C[C@@]3(C)[C@@H](CC[C@@]3(O)C(F)(F)C(F)(F)F)[C@@H]3CCC4=CC(=O)CCC4=C32)cc1` [Example 18, 1-allyl-3-[4-((8S,11R,13S,14S,17S)-17-hydroxy-13-methyl-3-oxo-17-pentafluoroethyl-2,3,6,7,8,11,12,13,14,15,16,17-dodecahydro-1H-cyclopenta[a]phenanthren-11-yl)benzyl]urea], the IC50 in experiment [1] and in experiment [2] was 0.8 nM in each case.
Consider `C[C@]12C[C@H](c3ccc(CNC(=O)Nc4ccc(N5CCCCC5)cc4)cc3)C3=C4CCC(=O)C=C4CC[C@H]3[C@@H]1CC[C@@]2(O)C(F)(F)C(F)(F)F` [Example 39, 1-[4-((8S,11R,13S,14S,17S)-17-hydroxy-13-methyl-3-oxo-17-pentafluoroethyl-2,3,6,7,8,11,12,13,14,15,16,17-dodecahydro-1H-cyclopenta[a]phenanthren-11-yl)benzyl]-3-(4-piperidin-1-ylphenyl)urea], for which the IC50 in experiment [1] was 0.1 nM; in experiment [2], 0.2 nM.
The corresponding values for `C[C@]12C[C@H](c3ccc(CNC(=O)Nc4ccc(F)cc4)cc3)C3=C4CCC(=O)C=C4CC[C@H]3[C@@H]1CC[C@@]2(O)C(F)(F)C(F)(F)F` [Example 33, 1-(4-fluorophenyl)-3-[4-((8S,11R,13S,14S,17S)-17-hydroxy-13-methyl-3-oxo-17-pentafluoroethyl-2,3,6,7,8,11,12,13,14,15,16,17-dodecahydro-1H-cyclopenta[a]phenanthren-11-yl)benzyl]urea] are 0.8 nM and 0.8 nM.
The corresponding values for `CC(C)(C)c1ccc(NC(=O)NCc2ccc([C@H]3C[C@@]4(C)[C@@H](CC[C@@]4(O)C(F)(F)C(F)(F)F)[C@@H]4CCC5=CC(=O)CCC5=C43)cc2)cc1` [Example 35, 1-(4-tert-butylphenyl)-3-[4-((8S,11R,13S,14S,17S)-17-hydroxy-13-methyl-3-oxo-17-pentafluoroethyl-2,3,6,7,8,11,12,13,14,15,16,17-dodecahydro-1H-cyclopenta[a]phenanthren-11-yl)benzyl]urea] are 0.3 nM and 0.6 nM.
The corresponding values for `CC(C)(C)NC(=O)NCc1ccc([C@H]2C[C@@]3(C)[C@@H](CC[C@@]3(O)C(F)(F)C(F)(F)F)[C@@H]3CCC4=CC(=O)CCC4=C32)cc1` [Example 20, 1-tert-butyl-3-[4-((8S,11R,13S,14S,17S)-17-hydroxy-13-methyl-3-oxo-17-pentafluoroethyl-2,3,6,7,8,11,12,13,14,15,16,17-dodecahydro-1H-cyclopenta[a]phenanthren-11-yl)benzyl]urea] are 0.7 nM and 1 nM.
With `CC(C)(C)NC(=O)OCc1ccc([C@H]2C[C@@]3(C)[C@@H](CC[C@@]3(O)C(F)(F)C(F)(F)F)[C@@H]3CCC4=CC(=O)CCC4=C32)cc1` [Example 44, tert-butylcarbamic acid 4-((8S,11R,13S,14S,17S)-17-hydroxy-13-methyl-3-oxo-17-pentafluoroethyl-2,3,6,7,8,11,12,13,14,15,16,17-dodecahydro-1H-cyclopenta[a]phenanthren-11-yl)benzyl ester], the IC50 in experiment [1] and in experiment [2] was 0.1 nM each time.
In the case of `C[C@]12C[C@H](c3ccc(CNC(=O)NCC(=O)O)cc3)C3=C4CCC(=O)C=C4CC[C@H]3[C@@H]1CC[C@@]2(O)C(F)(F)C(F)(F)F` [Example 26, {3-[4-((8S,11R,13S,14S,17S)-17-hydroxy-13-methyl-3-oxo-17-pentafluoroethyl-2,3,6,7,8,11,12,13,14,15,16,17-dodecahydro-1H-cyclopenta[a]phenanthren-11-yl)benzyl]ureido}acetic acid], the IC50 in experiment [1] was 24 nM; in experiment [2], 64 nM.
The corresponding values for `C[C@]12C[C@H](c3ccc(COC(=O)Nc4ccccc4)cc3)C3=C4CCC(=O)C=C4CC[C@H]3[C@@H]1CC[C@@]2(O)C(F)(F)C(F)(F)F` [Example 46, phenylcarbamic acid 4-((8S,11R,13S,14S,17S)-17-hydroxy-13-methyl-3-oxo-17-pentafluoroethyl-2,3,6,7,8,11,12,13,14,15,16,17-dodecahydro-1H-cyclopenta[a]phenanthren-11-yl)benzyl ester] are 0.01 nM and 0.01 nM.
The corresponding values for `CC1(c2ccc([C@H]3C[C@@]4(C)[C@@H](CC[C@@]4(O)C(F)(F)C(F)(F)F)[C@@H]4CCC5=CC(=O)CCC5=C43)cc2)COC1` [Example 40, (8S,11R,13S,14S,17S)-17-hydroxy-13-methyl-11-[4-(3-methyloxetan-3-yl)phenyl]-17-pentafluoroethyl-1,2,6,7,8,11,12,13,14,15,16,17-dodecahydrocyclopenta[a]phenanthren-3-one] are 0.01 nM and 0.05 nM.
For `C[C@]12C[C@H](c3ccc(COC(=O)Nc4ccc(Cl)cc4)cc3)C3=C4CCC(=O)C=C4CC[C@H]3[C@@H]1CC[C@@]2(O)C(F)(F)C(F)(F)F` [Example 50, (4-chlorophenyl)carbamic acid 4-((8S,11R,13S,14S,17S)-17-hydroxy-13-methyl-3-oxo-17-pentafluoroethyl-2,3,6,7,8,11,12,13,14,15,16,17-dodecahydro-1H-cyclopenta[a]phenanthren-11-yl)benzyl ester], in that order: 0.1 nM and 0.4 nM.
As to `CCOC(=O)CCNC(=O)NCc1ccc([C@H]2C[C@@]3(C)[C@@H](CC[C@@]3(O)C(F)(F)C(F)(F)F)[C@@H]3CCC4=CC(=O)CCC4=C32)cc1` [Example 22, 3-{3-[4-((8S,11R,13S,14S,17S)-17-hydroxy-13-methyl-3-oxo-17-pentafluoroethyl-2,3,6,7,8,11,12,13,14,15,16,17-dodecahydro-1H-cyclopenta[a]phenanthren-11-yl)benzyl]ureido}propionic acid ethyl ester], the concentration for half-maximal inhibition (IC50) in experiment [1] was 0.5 nM; in experiment [2], 0.6 nM.
For the compound `C[C@]12C[C@H](c3ccc(CNC(=O)NCCC(=O)O)cc3)C3=C4CCC(=O)C=C4CC[C@H]3[C@@H]1CC[C@@]2(O)C(F)(F)C(F)(F)F` [Example 27, 3-{3-[4-((8S,11R,13S,14S,17S)-17-hydroxy-13-methyl-3-oxo-17-pentafluoroethyl-2,3,6,7,8,11,12,13,14,15,16,17-dodecahydro-1H-cyclopenta[a]phenanthren-11-yl)benzyl]ureido}propionic acid], the IC50 in experiment [1] was determined as 43 nM; in experiment [2] it was 29 nM.
For `C[C@]12C[C@H](c3ccc([C@@H]4CC4CO)cc3)C3=C4CCC(=O)C=C4CCC3C1CC[C@@]2(O)C(F)(F)C(F)(F)F` (single isomer, unassigned) [Example 6A], the IC50 in experiment [1] and in experiment [2] was 0.1 nM throughout.

Usually IC50 stands for the concentration at which inhibition is half-maximal. A higher IC50 goes with a need for much substance.
